Assays:
[1] = biological target: T1, human ETB receptor (Homo sapiens, UniProt P24530); assay: ETB receptor binding test ([125I]-ET3, CHO cell membranes); conditions: cloned human ETB receptor-expressing CHO cell membranes, 25 pM [125I]-ET3, 25° C., 30 min
T1 construct: expressed in transfected cells; host or cells: CHO cells
T1 sequence (P24530 27-442): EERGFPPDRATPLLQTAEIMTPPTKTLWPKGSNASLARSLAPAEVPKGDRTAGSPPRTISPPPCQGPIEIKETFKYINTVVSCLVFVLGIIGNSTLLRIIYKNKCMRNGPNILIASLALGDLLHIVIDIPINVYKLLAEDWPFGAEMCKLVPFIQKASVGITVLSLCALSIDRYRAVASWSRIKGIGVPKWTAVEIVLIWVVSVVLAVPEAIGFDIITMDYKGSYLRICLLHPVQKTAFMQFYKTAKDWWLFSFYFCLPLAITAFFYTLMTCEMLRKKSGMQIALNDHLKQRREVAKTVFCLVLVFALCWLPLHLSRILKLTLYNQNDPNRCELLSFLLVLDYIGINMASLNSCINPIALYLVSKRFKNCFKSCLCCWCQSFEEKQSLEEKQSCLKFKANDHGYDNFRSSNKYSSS
Protocol: (§1) For binding studies, cloned human ETA or ETB receptor-expressing CHO cells were employed.
(§2) The ETA or ETB receptor-expressing CHO cells were proliferated in DMEM NUT MIX F12 medium (Gibco, No. 21331-020) using 10% fetal calf serum (PAA Laboratories GmbH, Linz, No. A15-022), 1 mM glutamine (Gibco No. 25030-024), 100 U/ml of penicillin and 100 μg/ml of streptomycin (Gibco, Sigma No P-0781). After 48 hours, the cells were washed with PBS and incubated at 37° C. for 5 minutes with 0.05% trypsin-containing PBS. Neutralization was then carried out with medium and the cells were collected by centrifugation at 300×g.
(§3) For membrane preparation, the cells were adjusted to a concentration of 10^8 cells/ml of buffer (50 mM tris-HCl buff r, pH 7.4) and then disintegrated by ultrasound (Branson Sonifier 250, 40-70 seconds/constant/output 20).
(§4) For the ETA and ETB receptor binding test, the membranes were suspended in incubation buffer (50 mM tris HCl, pH 7.4 with 5 mM MnCl2, 40 mg/ml of bacitracin and 0.2% of BSA) in a concentration of 50 μg of protein per test batch and incubated at 25° C. with 25 pM of [125J]-ET1 (ETA receptor test) or 25 pM of [125I)-ET3 (ETB receptor test) in the presence and absence of test substance. The nonspecific binding was determined using 10^−7 M ET1. After 30 min, the free and the bound radioligand was separated by filtration through GF/B glass fiber filters (Whatman, England) on a Skatron cell collector (Skatron, Lier, Norway) and the filters were washed with ice-cold tris HCl buffer, pH 7.4 with 0.2% of BSA. The radioactivity collected on the filters was quantified using a Packard 2200 CA liquid scintillation counter.

[2] = biological target: T2, human ETA receptor (Homo sapiens, UniProt P25101); assay: ETA receptor binding test ([125J]-ET1, CHO cell membranes); conditions: cloned human ETA receptor-expressing CHO cell membranes, 25 pM [125J]-ET1, 25° C., 30 min
T2 construct: expressed in transfected cells; host or cells: CHO cells
T2 sequence (P25101 21-427): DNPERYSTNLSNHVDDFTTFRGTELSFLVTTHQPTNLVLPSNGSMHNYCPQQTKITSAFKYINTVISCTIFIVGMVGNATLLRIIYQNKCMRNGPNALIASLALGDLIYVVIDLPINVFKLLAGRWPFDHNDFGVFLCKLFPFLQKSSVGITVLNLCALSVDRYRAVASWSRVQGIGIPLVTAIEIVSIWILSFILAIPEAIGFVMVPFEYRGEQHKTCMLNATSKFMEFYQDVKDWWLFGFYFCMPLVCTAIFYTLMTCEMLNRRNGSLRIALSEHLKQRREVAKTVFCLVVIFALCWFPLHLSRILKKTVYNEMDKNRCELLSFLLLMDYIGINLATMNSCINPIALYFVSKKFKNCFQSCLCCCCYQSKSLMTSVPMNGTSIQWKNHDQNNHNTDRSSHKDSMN
Protocol: as §1, §2, §3, §4

| SMILES | Ki [1] | Ki [2] |
| --- | --- | --- |
| COc1ccc(N(C)C(=O)NC(c2ccccc2)(c2ccccc2)C(Oc2nc(OC)cc(OC)n2)C(=O)O)cc1 (stereo not drawn) [Compound I-121, 2-[(4,6-Dimethoxy-2-pyrimidinyl)oxy]-N-{[4-methoxy(methyl)-anilino]carbonyl}-3,3-diphenyl-β-alanine] | ≥ 10000 nM | 310 nM |
| COc1cc(OC)nc(OC(C(=O)O)C(NC(=O)N(C)C)(c2ccccc2)c2ccccc2)n1 (stereo not drawn) [Compound I-11, 2-[(4,6-Dimethoxy-2-pyrimidinyl)oxy]-N-[(dimethylamino)carbonyl]-3,3-diphenyl-β-alanine] | > 10000 nM | 397 nM |
| COc1ccc(CN(C)C(=O)NC(c2ccccc2)(c2ccccc2)C(Oc2nc(OC)cc(OC)n2)C(=O)O)cc1 (stereo not drawn) [Compound I-23, 2-[(4,6-Dimethoxy-2-pyrimidinyl)oxy]-N-{[(4-methoxybenzyl)-(methyl)amino]carbonyl}-3,3-diphenyl-β-alanine] | 6620 nM | 147 nM |
| COc1cc(OC)nc(OC(C(=O)O)C(NC(=O)Oc2ccc(C)c(C)c2)(c2ccccc2)c2ccccc2)n1 (stereo not drawn) [Compound I-168, 2-[(4,6-Dimethoxy-2-pyrimidinyl)oxy]-N-[(3,4-dimethylphenoxy)-carbonyl]-3,3-diphenyl-β-alanine] | 730 nM | 105 nM |
| Cc1cc(C)nc(OC(C(=O)O)C(NC(=O)N2CCCC2)(c2ccccc2)c2ccccc2)n1 (stereo not drawn) [Compound I-26, 2-[(4,6-Dimethyl-2-pyrimidinyl)oxy]-3,3-diphenyl-N-(1-pyrrolidinylcarbonyl)-β-alanine] | 3850 nM | 53 nM |
| CCN(CC)C(=O)NC(c1ccccc1)(c1ccccc1)C(Oc1nc(OC)cc(OC)n1)C(=O)O (stereo not drawn) [Compound I-86, N-[(Diethylamino)carbonyl]-2-[(4,6-dimethoxy-2-pyrimidinyl)oxy]-3,3-diphenyl-β-alanine] | > 10000 nM | 253 nM |
| COc1cc(OC)nc(OC(C(=O)O)C(NC(=O)N(C)c2ccccc2)(c2ccccc2)c2ccccc2)n1 (stereo not drawn) [Compound I-155, 2-[(4,6-Dimethoxy-2-pyrimidinyl)oxy]-N-[(methylanilino)carbonyl]-3,3-diphenyl-β-alanine] | 5770 nM | 265 nM |
| Cc1cc(C)nc(OC(C(=O)O)C(NC(=O)N2CCCCC2)(c2ccccc2)c2ccccc2)n1 (stereo not drawn) [Compound I-52, 2-[(4,6-Dimethyl-2-pyrimidinyl)oxy]-3,3-diphenyl-N-(1-piperidinylcarbonyl)-β-alanine] | 4220 nM | 73 nM |
| COc1ccc(OC(=O)NC(c2ccccc2)(c2ccccc2)C(Oc2nc(OC)cc(OC)n2)C(=O)O)cc1 (stereo not drawn) [Compound I-170, 2-[(4,6-Dimethoxy-2-pyrimidinyl)oxy]-N-[(4-methoxyphenoxy)-carbonyl]-3,3-diphenyl-β-alanine] | 1930 nM | 120 nM |
| COC(=O)NC(c1ccccc1)(c1ccccc1)C(Oc1nc(OC)cc(OC)n1)C(=O)O (stereo not drawn) [Compound I-230, 2-[(4,6-Dimethoxy-2-pyrimidinyl)oxy]-N-(methoxycarbonyl)-3,3-diphenyl-β-alanine] | > 10000 nM | 89 nM |

Second part, the compound after the results:

| Ki [1] | Ki [2] | SMILES |
| --- | --- | --- |
| 2340 nM | 97 nM | COc1cc(OC)nc(OC(C(=O)O)C(NC(=O)OCc2ccccc2)(c2ccccc2)c2ccccc2)n1 (stereo not drawn) [Compound I-140, N-[(Benzyloxy)carbonyl]-2-[(4,6-dimethoxy-2-pyrimidinyl)oxy]-3,3-diphenyl-β-alanine] |
| 2440 nM | 235 nM | COc1cc(OC)nc(OC(C(=O)O)C(NC(=O)N(C)Cc2ccccc2)(c2ccccc2)c2ccccc2)n1 (stereo not drawn) [Compound I-260, N-{[Benzyl(methyl)amino]carbonyl}-2-[(4,6-dimethoxy-2-pyrimidinyl)oxy]-3,3-diphenyl-β-alanine] |
| 2330 nM | 14 nM | COc1ccc(CN(C)C(=O)NC(c2ccccc2)(c2ccccc2)C(Oc2nc(C)cc(C)n2)C(=O)O)cc1 (stereo not drawn) [Compound I-194, 2-[(4,6-Dirnethyl-2-pyrimidinyl)oxy]-N-{[(4-methoxybenzyl)-(methyl)amino]carbonyl}-3,3-diphenyl-β-alanine] |
| 1090 nM | 13 nM | COc1cc(OC)nc(OC(C(=O)O)C(NC(=O)OCc2cc(OC)c(OC)cc2[N+](=O)[O-])(c2ccccc2)c2ccccc2)n1 (stereo not drawn) [Compound I-266, N-{[(4,5-Dimethoxy-2-nitrobenzyl)oxy]carbonyl}-2-((4,6-dimethoxy-2-pyrimidinyl)oxy]-3,3-diphenyl-β-alanine] |
| 195 nM | 19 nM | Cc1cc(C)nc(OC(C(=O)O)C(NC(=O)N(C)C2CCCCC2)(c2ccccc2)c2ccccc2)n1 (stereo not drawn) [Compound I-202, N-{[Cyclohexyl(methyl)amino]carbonyl}-2-[(4,6-dimethyl-2-pyrimidinyl)oxy]-3,3-diphenyl-β-alanine] |
| 3450 nM | 117 nM | Cc1cc(C)nc(OC(C(=O)O)C(NC(=O)N2CCOCC2)(c2ccccc2)c2ccccc2)n1 (stereo not drawn) [Compound I-75, 2-[(4,6-Dimethyl-2-pyrimidinyl)oxy]-N-(4-morpholinylcarbonyl)-3,3-diphenyl-β-alanine] |

Source: patent publication US20040034076A1, “Novel carbamates and carbamides, production and use thereof as endothelin receptor antagonists” (priority 2000, published 2004)
